Test [1] addresses T1, TYK2 (JH2domain-pseudokinase) (Homo sapiens, UniProt P29597).
T1 construct: TYK2 (JH2domain-pseudokinase)-tagged T7 phage strains were prepared in an E. coli host derived from the BL21 strain; made in house; host or cells: E. coli BL21-derived host (T7 phage) or HEK-293 cells
Kind of test: TYK2 JH2 domain binding assay (KINOMEscan). The procedure, abridged: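 Kd values come from nonlinear least-squares fits of 11-point 3-fold dilutions (mostly 30,000 nM top, lowered when Kd fell below 0.5 nM). Test compound competed with bead-bound biotinylated ligand for qPCR-tagged TYK2 pseudokinase (JH2) domain, shaken 1 h at room temperature, with about 1% final DMSO.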

The subject of test [2] is STAT1/3 through TYK2/JAK1. In words: IFNa induced STAT phosphorylation in HEK293 cells (SIE-bla reporter gene). It is filed as cell-based. The settings on record: Homo sapiens, HEK293; HEK293T-sie-bla cells, IFNa at EC80, 4 hours; read-out: Inhibition of IFNa induced STAT phosphorylation HEK293 cells IC50. The procedure, abridged:
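Read-out was FRET from a β-lactamase reporter under a SIE promoter in HEK293T cells, with substrate added after a 4 h, 37°C co-incubation of compound and EC80 IFNa and left overnight in the dark. Compounds ran as 10-point 1/5 dilutions at 0.1% final DMSO; four-parameter log fit gave IC50.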
A general note: A reporter such as luciferase makes a cellular process visible.

T1 sequence (P29597 589-875 limits assumed): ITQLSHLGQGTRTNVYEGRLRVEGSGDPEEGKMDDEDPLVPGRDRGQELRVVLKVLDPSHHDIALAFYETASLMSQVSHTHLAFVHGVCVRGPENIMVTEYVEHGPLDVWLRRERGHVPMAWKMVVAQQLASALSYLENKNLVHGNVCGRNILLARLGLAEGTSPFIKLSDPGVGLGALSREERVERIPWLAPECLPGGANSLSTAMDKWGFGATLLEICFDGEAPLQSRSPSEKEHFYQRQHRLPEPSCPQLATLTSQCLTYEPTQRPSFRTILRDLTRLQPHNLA

With `Cc1cc(Nc2cc(Nc3ncc(-c4nccn4C)cc3N(C)S(C)(=O)=O)ncn2)nc(C)n1` [Example 128, N-[2-[[6-[(2,6-dimethylpyrimidin-4-yl)amino]pyrimidin-4-yl]amino]-5-(1-methylimidazol-2-yl)-3-pyridyl]-N-methyl-methanesulfonamide], in test [1], the dissociation constant (Kd) (in general, the free concentration of one partner at which half of the binding sites on the other are occupied at equilibrium, for simple one-to-one binding) was under 0.2 nM. In test [2], the IC50 – broadly, the concentration that gives 50% inhibition – was in the range of 100 to 1000 nM.

Take `Cc1cc(Nc2cc(Nc3ncc(-c4cc(C)nn4C)cc3N(C)S(C)(=O)=O)ncn2)nc(C)n1` [Example 129, N-[5-(2,5-dimethylpyrazol-3-yl)-2-[[6-[(2,6-dimethylpyrimidin-4-yl)amino]pyrimidin-4-yl]amino]-3-pyridyl]-N-methyl-methanesulfonamide]: the equilibrium dissociation constant (Kd) in test [1] is under 0.2 nM. Further, in test [2], the 50% inhibitory concentration (IC50) lay within 10 to 100 nM.

For the molecule `Cc1cc(Nc2cc(Nc3ncc(-c4ncnn4C)cc3N(C)S(C)(=O)=O)ncn2)nc(C)n1` [Example 130, N-[2-[[6-[(2,6-dimethylpyrimidin-4-yl)amino]pyrimidin-4-yl]amino]-5-(2-methyl-1,2,4-triazol-3-yl)-3-pyridyl]-N-methyl-methanesulfonamide], the dissociation constant (Kd) in test [1] lay within 0.2 to 1 nM. For the same molecule, in test [2], the IC50 fell in the range of 100 to 1000 nM.

In test [1], `Cc1cc(Nc2cc(Nc3ncc(-c4ccn(C)n4)cc3N(C)S(C)(=O)=O)ncn2)nc(C)n1` [Example 131, N-[2-[[6-[(2,6-dimethylpyrimidin-4-yl)amino]pyrimidin-4-yl]amino]-5-(1-methylpyrazol-3-yl)-3-pyridyl]-N-methyl-methanesulfonamide] came in with a Kd of under 0.2 nM. The IC50 in test [2] was in the range of 10 to 100 nM.

Regarding `COc1c(C)ccnc1Nc1cc(Nc2cc(C)nc(C)n2)ncn1` [Example 132, N4-(2,6-dimethylpyrimidin-4-yl)-N6-(3-methoxy-4-methyl-2-pyridyl)pyrimidine-4,6-diamine], in test [1], the equilibrium dissociation constant (Kd) was 0.2 to 1 nM. The IC50 in test [2] was in the range of 100 to 1000 nM.

For the molecule `Cc1cc(Nc2cc(Nc3ncc(-c4nnc(C)n4C)cc3N(C)S(C)(=O)=O)ncn2)nc(C)n1` [Example 134, N-[2-[[6-[(2,6-dimethylpyrimidin-4-yl)amino]pyrimidin-4-yl]amino]-5-(4,5-dimethyl-1,2,4-triazol-3-yl)-3-pyridyl]-N-methyl-methanesulfonamide], the dissociation constant Kd in test [1] fell in the range of 0.2 to 1 nM. Further, the IC50 in test [2] was over 1000 nM.

Turning to `[2H]C([2H])([2H])N(c1cc(-c2nnc(C)n2C)cnc1Nc1cc(Nc2cc(C)nc(C)n2)ncn1)S(C)(=O)=O` [Example 136, N-[2-[[6-[(2,6-dimethylpyrimidin-4-yl)amino]pyrimidin-4-yl]amino]-5-(4,5-dimethyl-1,2,4-triazol-3-yl)-3-pyridyl]-N-(trideuteriomethyl)methanesulfonamide], the equilibrium dissociation constant (Kd) in test [1] was under 0.2 nM. Besides, in test [2], the IC50 was under 10 nM.

`Cc1cc(Nc2cc(Nc3ncc(-c4ncc(C)n4C)cc3N(C)S(C)(=O)=O)ncn2)nc(C)n1` [Example 140, N-[5-(1,5-dimethylimidazol-2-yl)-2-[[6-[(2,6-dimethylpyrimidin-4-yl)amino]pyrimidin-4-yl]amino]-3-pyridyl]-N-methyl-methanesulfonamide] gave a Kd in test [1] of under 0.2 nM. Moreover, the half-maximal inhibitory concentration (IC50) in test [2] lay within 10 to 100 nM.

`COc1c(Nc2cc(Nc3cc(C)nc(C)n3)ncn2)ncc(-c2cnn(C)c2C)c1C` [Example 141, N6-[5-(1,5-dimethylpyrazol-4-yl)-3-methoxy-4-methyl-2-pyridyl]-N4-(2,6-dimethylpyrimidin-4-yl)pyrimidine-4,6-diamine] had a Kd in test [1] of under 0.2 nM. Further, the concentration for half-maximal inhibition (IC50) in test [2] lay in the range of 10 to 100 nM.

In test [1], `Cc1cc(Nc2cc(Nc3ncc(-c4cnc(C)n4C)cc3N(C)S(C)(=O)=O)ncn2)nc(C)n1` [Example 142, N-[5-(2,3-dimethylimidazol-4-yl)-2-[[6-[(2,6-dimethylpyrimidin-4-yl)amino]pyrimidin-4-yl]amino]-3-pyridyl]-N-methyl-methanesulfonamide] registered a Kd of under 0.2 nM. Moreover, in test [2], the IC50 lay in the range of 10 to 100 nM.

On to `COc1c(-c2noc(C(F)(F)F)n2)ccnc1Nc1cc(Nc2cc(C)nc(C)n2)ncn1` [Example 143, N6-(2,6-dimethylpyrimidin-4-yl)-N4-[3-methoxy-4-[5-(trifluoromethyl)-1,2,4-oxadiazol-3-yl]-2-pyridyl]pyrimidine-4,6-diamine], for which the dissociation constant (Kd) in test [1] was in the range of 1 to 10 nM. Also, the 50% inhibitory concentration (IC50) in test [2] is over 1000 nM.

`Cc1cc(Nc2cc(Nc3ncc(-c4cnn(C)c4C)cc3NS(C)(=O)=O)ncn2)nc(C)n1` [Example 144, N-[5-(1,5-dimethylpyrazol-4-yl)-2-[[6-[(2,6-dimethylpyrimidin-4-yl)amino]pyrimidin-4-yl]amino]-3-pyridyl]methanesulfonamide] had an equilibrium dissociation constant (Kd) in test [1] of under 0.2 nM. For the same molecule, the IC50 in test [2] is 10 to 100 nM.

Take `Cc1cc(Nc2cc(Nc3ncccc3P(C)(C)=O)ncn2)nc(C)n1` [Example 145, N6-(3-dimethylphosphoryl-2-pyridyl)-N4-(2,6-dimethylpyrimidin-4-yl)pyrimidine-4,6-diamine]: the Kd in test [1] is under 0.2 nM. Also, the 50% inhibitory concentration (IC50) in test [2] is 10 to 100 nM.

In turn, `COc1cc(-c2cnn(C)c2C)cnc1Nc1cc(Nc2cc(C)nc(C)n2)ncn1` [Example 146, N6-[5-(1,5-dimethylpyrazol-4-yl)-3-methoxy-2-pyridyl]-N4-(2,6-dimethylpyrimidin-4-yl)pyrimidine-4,6-diamine] showed a Kd in test [1] of under 0.2 nM. For the same molecule, the IC50 in test [2] was under 10 nM.

In turn, `Cc1cc(Nc2cc(Nc3ncc(-c4cn(C)cn4)cc3N(C)S(C)(=O)=O)ncn2)nc(C)n1` [Example 147, N-[2-[[6-[(2,6-dimethylpyrimidin-4-yl)amino]pyrimidin-4-yl]amino]-5-(1-methylimidazol-4-yl)-3-pyridyl]-N-methyl-methanesulfonamide] yielded a Kd in test [1] of under 0.2 nM. Moreover, the 50% inhibitory concentration (IC50) in test [2] was in the range of 10 to 100 nM.

As to `COc1c(-c2nc(C)n(C)n2)ccnc1Nc1cc(Nc2cc(C)nc(C)n2)ncn1` [Example 148, N4-(2,6-dimethylpyrimidin-4-yl)-N6-[4-(1,5-dimethyl-1,2,4-triazol-3-yl)-3-methoxy-2-pyridyl]pyrimidine-4,6-diamine], the dissociation constant (Kd) in test [1] was under 0.2 nM. Also, the IC50 in test [2] was 10 to 100 nM.

For `Cc1cc(Nc2cc(Nc3ncc(-c4cnn(C)c4C)cc3P(C)(C)=O)ncn2)nc(C)n1` [Example 149, N6-[3-dimethylphosphoryl-5-(1,5-dimethylpyrazol-4-yl)-2-pyridyl]-N4-(2,6-dimethylpyrimidin-4-yl)pyrimidine-4,6-diamine], the Kd in test [1] is under 0.2 nM. Further, the 50% inhibitory concentration (IC50) in test [2] is under 10 nM.

In turn, `Cc1cc(Nc2cc(Nc3nccc(C)c3S(C)(=O)=O)ncn2)nc(C)n1` [Example 150, N4-(2,6-dimethylpyrimidin-4-yl)-N6-(4-methyl-3-methylsulfonyl-2-pyridyl)pyrimidine-4,6-diamine] returned an equilibrium dissociation constant (Kd) in test [1] of under 0.2 nM. Also, the 50% inhibitory concentration (IC50) in test [2] is under 10 nM.

In test [1], `Cc1c(-c2cnc(Nc3cc(NC(=O)C4CC4)ncn3)c(S(C)(=O)=O)c2)cnn1C` [Example 151, N-[6-[[5-(1,5-dimethylpyrazol-4-yl)-3-methylsulfonyl-2-pyridyl]amino]pyrimidin-4-yl]cyclopropanecarboxamide] yielded an equilibrium dissociation constant (Kd) of under 0.2 nM. The IC50 in test [2] was under 10 nM.

`Cc1c(-c2cnc(Nc3cc(Nc4ccc(F)cn4)ncn3)c(S(C)(=O)=O)c2)cnn1C` [Example 152, N4-[5-(1,5-dimethylpyrazol-4-yl)-3-methylsulfonyl-2-pyridyl]-N6-(5-fluoro-2-pyridyl)pyrimidine-4,6-diamine] returned an equilibrium dissociation constant (Kd) in test [1] of under 0.2 nM. For the same molecule, the IC50 in test [2] is under 10 nM.

In test [1], `Cc1cc(Nc2cc(Nc3ncc(-c4cnn(C)c4C)c(C)c3S(C)(=O)=O)ncn2)nc(C)n1` [Example 153, N6-[5-(1,5-dimethylpyrazol-4-yl)-4-methyl-3-methylsulfonyl-2-pyridyl]-N4-(2,6-dimethylpyrimidin-4-yl)pyrimidine-4,6-diamine] came in with a dissociation constant (Kd) of under 0.2 nM. In addition, the half-inhibitory concentration (IC50) in test [2] is under 10 nM.

In test [1], `Cc1cc(Nc2cc(Nc3ncc(-c4nc(C)n(C)n4)cc3N(C)S(C)(=O)=O)ncn2)ncn1` [Example 154, N-[5-(1,5-dimethyl-1,2,4-triazol-3-yl)-2-[[6-[(6-methylpyrimidin-4-yl)amino]pyrimidin-4-yl]amino]-3-pyridyl]-N-methyl-methanesulfonamide] registered a Kd of under 0.2 nM. Also, the IC50 in test [2] was 10 to 100 nM.

Turning to `Cc1cc(Nc2cc(Nc3ncc(-c4nc(C)nn4C)cc3N(C)S(C)(=O)=O)ncn2)ncn1` [Example 155, N-[5-(2,5-dimethyl-1,2,4-triazol-3-yl)-2-[[6-[(6-methylpyrimidin-4-yl)amino]pyrimidin-4-yl]amino]-3-pyridyl]-N-methyl-methanesulfonamide], the Kd in test [1] lay in the range of 0.2 to 1 nM. Moreover, the IC50 in test [2] lay within 100 to 1000 nM.

`Cc1cc(Nc2cc(Nc3nc(C)ccc3S(C)(=O)=O)ncn2)ncn1` [Example 156, N6-(6-methyl-3-methylsulfonyl-2-pyridyl)-N4-(6-methylpyrimidin-4-yl)pyrimidine-4,6-diamine] showed a Kd in test [1] of 1 to 10 nM. Moreover, the IC50 in test [2] is over 1000 nM.

Molecule `Cc1cc(Nc2cc(Nc3ncc(C4CCOCC4)cc3N(C)S(C)(=O)=O)ncn2)nc(C)n1` [Example 157, N-[2-[[6-[(2,6-dimethylpyrimidin-4-yl)amino]pyrimidin-4-yl]amino]-5-(oxan-4-yl)pyridin-3-yl]-N-methylmethanesulfonamide] came in with a Kd in test [1] of 0.2 to 1 nM. In addition, in test [2], the IC50 lay in the range of 10 to 100 nM.

As to `Cc1ccc(Nc2cc(Nc3ncc(-c4cnn(C)c4C)cc3N(C)S(C)(=O)=O)ncn2)nn1` [Example 158, N-[5-(1,5-dimethylpyrazol-4-yl)-2-[[6-[(6-methylpyridazin-3-yl)amino]pyrimidin-4-yl]amino]-3-pyridyl]-N-methyl-methanesulfonamide], in test [1], the Kd is under 0.2 nM. Further, the 50% inhibitory concentration (IC50) in test [2] fell in the range of 10 to 100 nM.

For the origin of these results see patent publication EP4206196A1, “PYRIMIDINE SUBSTITUTED DERIVATIVES AS TYK2 INHIBITORS” (Almirall S.A., priority 2021, dated 2023).
